According to patent US20220312815A1, “NATURAL FOOD ANTIOXIDANT AND METHOD FOR PREPARING THE SAME” (Lanzhou Universty, priority 2019, published 2022):
Marks after values point to notes of the source that are not given here.

How the values were obtained:
[1] = Antioxidative activity of DPPH (DPPH free radical scavenging); assay type: biochemical; settings: absorbance at 519 nm after 30 minutes in dark at room temperature; mean of 3 repeats
Description: Antioxidative activity of DPPH: DPPH belonged to a synthetic stable free radical, which has characteristic absorption in a visible light region. A method for measuring DPPH was simple and fast and had good reproducibility. Flavonoid and a sample of flavonoid and polysaccharide mixed that was prepared in Embodiment 1 were all prepared with 70% ethyl alcohol. The polysaccharide sample, positive control vitamin C (Vc) and vitamin E (Ve) were prepared with distilled water. 1.280 mg/mL stock solution was prepared with each substance to be tested and diluted for 7 concentration gradients for later use. 75 μL of a solution in each concentration to be tested was precisely added to a 96-ferment plate, and then added with 150 μL of 0.1 m MDPPH 70% ethyl alcohol solution. A blank control was set for each reaction hole of each concentration. The blank control was 75 μL of the solution to be tested and 150 μL of 70% ethyl alcohol. The total volume of reaction was 225 μL. The solution was shook well, and kept standing in dark at room temperature for 30 minutes. […] A decrease in absorbency indicated an increase in free radical scavenging activity. Each sample was repeated 3 times for each concentration. Scavenging rate=[A0-(A1-A2)]/A0 A0 was a light absorption value of the DPPH solution plus a solution to be tested at a concentration of zero. […]

[2] = Antioxidative activity of superoxide anions (PMS-NADH-NBT system method); assay type: biochemical; settings: absorbance at 560 nm after 5 min, pH7.4 phosphate buffer
Source text: The determination of antioxidative activity of superoxide anions: O2-• was a free radicals with a longer life in a body. In free radical chain reaction. O2-• acted as an initiator to promote the generation of other free radicals, causing further harm to the body, which was closely related to many diseases. Therefore, the ability of the sample to remove O2-• was usually used as an important indicator of the activity of an antioxidative substance. Flavonoid and a sample of flavonoid and polysaccharide mixed that was prepared in Embodiment 1 were all prepared with 70% ethyl alcohol. A polysaccharide sample, positive control vitamin C (Vc) and vitamin E (Ve) were prepared with distilled water. 1.280 mg/mL stock solution was prepared with each substance to be tested and then diluted for 7 concentration gradients for later use. A PMS-NADH-NBT system method was used to determine the activity of scavenging superoxide anions (O2-•). […] When being added to the PMS-NADH-NBT system, an antioxidative substance inhibited the reaction of O2-• with NBT. By measuring absorbency, the ability to scavenge free radicals of antioxidant could be calculated. […] A light absorption value of the solution was measured at 560 nm after 5 min. […]

| SMILES | IC50 of DPPH [1] | IC50 of O2-· [2] |
| --- | --- | --- |
| O=C1O[C@H]([C@@H](O)CO)C(O)=C1O [Vc, vitamin C] | 2.95 ± 0.39^a μg/mL | 208.83 ± 10.41^d μg/mL |
| Cc1c(C)c2c(c(C)c1O)CC[C@@](C)(CCC[C@H](C)CCC[C@H](C)CCCC(C)C)O2 [Ve, vitamin E] | 5.33 ± 0.45^a μg/mL | 353.33 ± 4.16^e μg/mL |
